According to article PMC11530130, “Peripherally restricted PICK1 inhibitor mPD5 ameliorates pain behaviors in murine inflammatory and neuropathic pain models” (JCI Insight, 2024):
“And” between values parts separate entries of the source, which are not always exact repeats. Identical values can stand only once.

System: PICK1-WT and PICK1-KO mice, SNI model
Assay: SNI model, von Frey, PICK1-WT and PICK1-KO mice;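 as to von Frey paw withdrawal threshold, individual animals (Fig 5F): time points given in hours with 0 hours as the comparison point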
Type: in vivo, mouse
Conditions: for effect on mechanical hypersensitivity (PWT): s.c.
Experimental: solution (0.05 mg/kg) injected s.c. 30 min before surgery (10 μL/g). For surgery, mice were anaesthetised with ketamine (100 mg/kg, i.p.) and xylazine (10 mg/kg, i.p.) (volume 10 µL/g) with 100 μL of 1% xylocaine solution infiltrated at the site of the incision. The distal trifurcation of the sciatic nerve was identified, and the tibial and common peroneal branches were ligated with polypropylene nonabsorbable 6-0 sutures (Ethicon) and 1 mm was cut out, leaving the sural branch intact. The wound was closed with sutures, and the animals were allowed to recover and returned to their cages. Two subcutaneous injections of buprenorphine (0.05 mg/kg) were performed with an 8 to 12 hours delay decreasing pain due to the surgery […]
The remaining SNI pain experiments were performed in-house using the following procedure.
SNI surgery was performed on the left hindleg of C57BL/6J male and female mice (Janvier, France) under 2% isoflurane anaesthesia. Skin on the lateral surface was incised between hip and knee followed by lengthwise division of the biceps femoris muscle leading to exposure of the three branches of the sciatic nerve. Sural branch was left intact, while the peroneal and tibial branches were ligated with a single surgical knot and axotomized distally of the ligation.
Wounds were closed with surgical glue or medical clips and animals were monitored daily for signs of stress or discomfort, but in all cases recovered uneventfully. […]
The skin wound was closed with two medical clips (Michel Suture Clips, 7.5x1.75 mm, Angthos, 12040-01). Post-surgical analgesia included s.c. injection of 5 mg/kg carprofen (Carprosan vet, 50 mg/mL mixed 1:25 in sterile ddH2O, Dechra, Le Vet Beheer B.V., Netherlands, Batch: 050520) right after surgery and the […]
following day. […]
The test battery of the CIBP model was carried out 45 or 90 min after morphine and mPD5 administration respectively to accommodate the peak efficacy […]
Mechanically evoked pain (von Frey test).
Unless otherwise specified, von Frey occurred as described in the following. Animals were habituated to the experimental room for a minimum of 60 min before initiation of the experiment. Mechanical paw withdrawal threshold (PWT) was determined by von Frey measurements of both hind paws. Von Frey filaments ranging from 0.04 to 2 g (g = gram- […]
Filaments in ascending order were applied to the frontocentral plantar surface of the hind paws.
Mice were placed in PVC plastic boxes (11.5 cm x 14 cm) on a wire mesh and allowed minimum 20 min habituation prior of experiment initiation. Each von Frey hair was applied five times with adequate resting periods between each application and number of withdrawals recorded. The withdrawal threshold was determined as the von Frey filament eliciting at least three positive trials out of the five applications in two consecutive filaments. A positive trial was defined as sudden paw withdrawal, flinching and/or paw licking induced by the filament.
For the CIBP model, two habituation sessions were performed on separated days with mice placed in the von Frey equipment for 1-1.5 hours in the presence of the experimenter on day one and random von Frey pocking with the 0.6 g filament on day two. Von Frey monofilaments (North Coast Touch Test, North Coast Medical, Inc.) with target forces of 0.04g, 0.07g, 0.16g, […]
down method” (PWT=10Xf+kδ) starting with the 0.6 g filament. Positive response was defined as; withdrawal, shaking or grooming of paw following a 2-3 second stimulation. In case, of unclear response, stimulus was repeated after 10-15 seconds.
For the STZ model, the mechanical threshold response of the injected mice was measured with […]
injection of test compounds on day 14, mechanical threshold was measured at 1 hour, 2 hours, 4 hours and 6 hours and again on day 15. […]
Thermally evoked pain (Hargreaves test).
A baseline Hargreaves test was performed on day 0 before inflammatory pain was induced as described in section 2.13. In the Hargreaves test, the mouse was placed in a container on a glass […]

CCCCCCCCCCCCCC(=O)N(CCOCCOCCC(=O)N[C@@H](Cc1c[nH]cn1)C(=O)N[C@@H](Cc1c[nH]c2ccccc12)C(=O)N[C@@H](CC(C)C)C(=O)N[C@@H](CCCCN)C(=O)N[C@H](C(=O)O)C(C)C)CCOCCOCCC(=O)N[C@@H](Cc1c[nH]cn1)C(=O)N[C@@H](Cc1c[nH]c2ccccc12)C(=O)N[C@@H](CC(C)C)C(=O)N[C@@H](CCCCN)C(=O)N[C@H](C(=O)O)C(C)C [mPD5, myristoyl-NPEG4-(HWLKV)2]
effect on mechanical hypersensitivity (PWT) (PICK1-KO mice following SNI surgery): no effect on mechanical hypersensitivity
von Frey paw withdrawal threshold, individual animals (Fig 5F) (PICK1-KO, CONTRA, BL): 1.4 (4×) and 2 (2×)
von Frey paw withdrawal threshold, individual animals (Fig 5F) (PICK1-KO, CONTRA, time 0): 1 (3×) and 1.4 (3×)
von Frey paw withdrawal threshold, individual animals (Fig 5F) (PICK1-KO, CONTRA, time 1): 1.4 (3×) and 0.6 and 2 and 1
von Frey paw withdrawal threshold, individual animals (Fig 5F) (PICK1-KO, CONTRA, time 5): 1 and 1.4 (3×) and 2 (2×)
von Frey paw withdrawal threshold, individual animals (Fig 5F) (PICK1-KO, injured side, BL): 1.4 (4×) and 2 and 1
von Frey paw withdrawal threshold, individual animals (Fig 5F) (PICK1-KO, injured side, time 0): 0.6 and 0.07 and 0.4 (2×) and 0.16 (2×)
von Frey paw withdrawal threshold, individual animals (Fig 5F) (PICK1-KO, injured side, time 1): 0.4 (2×) and 0.16 (3×) and 0.07
von Frey paw withdrawal threshold, individual animals (Fig 5F) (PICK1-KO, injured side, time 5): 0.16 (2×) and 0.07 (3×) and 0.4
von Frey paw withdrawal threshold, individual animals (Fig 5F) (PICK1-WT, CONTRA, BL): 1 (2×) and 1.4 (4×)
von Frey paw withdrawal threshold, individual animals (Fig 5F) (PICK1-WT, CONTRA, time 0): 1.4 (4×) and 1 and 2
von Frey paw withdrawal threshold, individual animals (Fig 5F) (PICK1-WT, CONTRA, time 1): 1.4 (3×) and 1 (2×) and 2
von Frey paw withdrawal threshold, individual animals (Fig 5F) (PICK1-WT, CONTRA, time 5): 1.4
von Frey paw withdrawal threshold, individual animals (Fig 5F) (PICK1-WT, injured side, BL): 1 (2×) and 1.4 (3×) and 2
von Frey paw withdrawal threshold, individual animals (Fig 5F) (PICK1-WT, injured side, time 0): 0.07 (2×) and 0.16 (3×) and 0.4
von Frey paw withdrawal threshold, individual animals (Fig 5F) (PICK1-WT, injured side, time 1): 1.4 (4×) and 1 (2×)
von Frey paw withdrawal threshold, individual animals (Fig 5F) (PICK1-WT, injured side, time 5): 0.6 (2×) and 0.4 (3×) and 1
effect on mechanical hypersensitivity (PWT) (WT littermates following SNI surgery): significantly reduced
